The subject of one experiment is T-bet and Eomes. As to the kind of experiment: T-bet and Eomes expression by flow cytometry in DLN CD8+ T cells. As to conditions: combined with PD-L1 antibody. It is filed as in vivo, mouse. The protocol: (§1) FIG. 15. […] Data represent the means±SEM of five mice. *p<0.05, **p<0.01, one-way ANOVA.
(§2) The following antibodies recognizing the indicated antigens were used: CD44 (1M7), CD45.2 (104), CD45.1 (A20), CD8 (53-6.7), CD62L (MEL-14), T-bet (4B/O) and IFN-7 (XMG1.2), MHC class I (AF6-88.5), CD155 (Tx56) and VISTA (MIH63) from BioLegend; p-AMPK (EPR5683) from Ancam; p-mTOR (MRRBY), Eomes (Danllmag) and PD-L1 (M1H5) from eBioscience. All flow cytometry experiments were performed on a FACS Canto II (BD Biosciences) and analyzed using FlowJo software (FLOWJO, LLC). For assessment of intracellular phosphoproteins, cells were permeabilized with 0.5% Triton-X and fixed with 1.5% PFA before staining. Determination of mitochondrial mass, membrane potential, mitochondrial superoxide and cellular ROS was performed using MitoTracker Green, Mito-Tracker Deep Red, MitoSOX Red, and CellROX Green reagents, respectively (all from Life Technologies). These dyes were added to cells to a final concentration of 0.125 μM, 0.125 μM, 5.0 μM and 0.625 μM, respectively, and incubated at 37° C. in a 5% CO2 humidified incubator for 30 min.
In general terms: A flow cytometer gives signals particle by particle.

The test system of the next experiment is IFN-γ. As to the kind of experiment: Intracellular IFN-γ staining of CD8+ T cells from digested tumor tissues. The experiment is classed as in vivo, mouse. The settings on record: CD8+ T cells in tumors; combined with PD-L1 antibody. The protocol:
as §1, §2

For one compound, Eomes expression, T-bet expression and IFN-γ production results are on record in patent publication US20230272077A1, “PD-1 SIGNAL INHIBITOR COMBINATION THERAPY” (KYOTO UNIVERSITY, priority 2015, published 2023).

Each structure is given as a SMILES string. “Also recorded” adds a separate entry of the source.

Consider `N#CC(C#N)=NNc1ccc(OC(F)(F)F)cc1` [FCCP, carbonyl cyanide p-trifluoromethoxyphenylhydrazone], for which, in the experiment on T-bet and Eomes, the Eomes expression result was “not Eomes expression” and the T-bet expression entry was “increased T-bet expression; also recorded: up-regulated”. Further, the IFN-γ production entry in the experiment with IFN-γ is on record as “increased; also recorded: up-regulated”.
